Test results reported in US10035800B2 (AbbVie Inc., priority 2013, dated 2018).

Key:
BRD4 (BDII_E352-M457) = target: T1, BRD4 (BDII_E352-M457) (Homo sapiens, UniProt O60885); test: TR-FRET bromodomain binding assay, second bromodomain of BRD4; conditions: 30 nM probe
T1 construct: protocol; made in house
In short: (§1)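 Probe displacement by TR-FRET: 8 nM His-BRD4 bromodomain, 1 nM Eu-anti-His, Alexa647 BET-inhibitor probe at 100 nM (BDI) or 30 nM (BDII); 20 mM Na phosphate pH 6.0, 2% DMSO; 1 h RT. Ex 340, Em 495/520. IC50 from 4PL fit; Ki from IC50, probe Kd and probe concentration.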

[1] = tested on: breast cancer cell line MX-1; test: MX-1 cell line proliferation assay; assay type: cell-based; conditions: MX-1 cells, 3-day proliferation assay, Cell Titer Glo; read-out: Cellular proliferation: EC50
Method: MX-1 Cell Line Proliferation Assay
The impact of compounds of the Examples on cancer cell proliferation was determined using the breast cancer cell line MX-1 (ATCC) in a 3-day proliferation assay and the data are reported in Table 1. MX-1 cells were maintained in RPMI 1640 medium (Sigma) supplemented with 10% FBS at 37 C.° and an atmosphere of 5% CO2. For compound testing, MX-1 cells were plated in 96-well black bottom plates at a density of 5000 cells/well in 90 μL of culture media and incubated at 37° overnight to allow cell adhesion and spreading. Compound dilution series were prepared in DMSO via a 3-fold serial dilution from 3 mM to 0.1 μM. The DMSO dilution series were then diluted 1:100 in phosphate buffered saline, and 10 μL of the resulted solution were added to the appropriate wells of the MX-1 cell plate. The final compound concentrations in the wells were 3, 1, 0.3, 0.1, 0.03, 0.01, 0.003, 0.001, 0.0003, and 0.0001 μM or 1, 0.3, 0.1, 0.03, 0.01, 0.003, 0.001, 0.0003, 0.0001, and 0.00003 μM.
Luminescence readings from the Cell Titer Glo assay were normalized to the DMSO treated cells and analyzed using the GraphPad Prism software with sigmoidal curve fitting to obtain EC50s. The minimum significant ratio (MSR) was determined to evaluate assay reproducibility (Eastwood et al., (2006) J Biomol Screen, 11: 253-261). The overall MSR was determined to be 2.1 and a moving MSR (last six run MSR overtime) has been <2.

BRD4 (BDI_K57-E168) = target: T2, BRD4 (BDI_K57-E168) (Homo sapiens, UniProt O60885); test: TR-FRET bromodomain binding assay, first bromodomain of BRD4; conditions: 100 nM probe
T2 construct: BD1: amino acids K57-E168; made in house
In short: as §1

[2] = TR-FRET assay protocol G (compound 0.92 μM-15 pM)
[3] = TR-FRET assay protocol E (compound 9.19 μM-150 pM)

Ki (BRD4 (BDII_E352-M457); [2]) | EC50 [1] | Ki (BRD4 (BDI_K57-E168); [2]) | Ki (BRD4 (BDII_E352-M457); [3]) | Ki (BRD4 (BDI_K57-E168); [3]) | Molecule
12.8 nM | 551 nM | 57.8 nM |  |  | Cn1cc2c3c(c[nH]c3c1=O)CN(S(=O)(=O)C1CC1)c1ccc(CS(C)(=O)=O)cc1-2 [Example 172, 4-(cyclopropylsulfonyl)-10-methyl-7-((methylsulfonyl)methyl)-3,4-dihydro-1H-1,4,10-triazadibenzo[cd,f]azulen-11(10H)-one]
2.68 nM | 16.2 nM | 5.49 nM |  |  | CCC(=O)N1Cc2c[nH]c3c(=O)n(C)cc(c23)-c2cc(CS(C)(=O)=O)ccc21 [Example 105, 10-methyl-7-((methylsulfonyl)methyl)-4-propionyl-3,4-dihydro-1H-1,4,10-triazadibenzo[cd,f]azulen-11(10H)-one]
29.4 nM | 160 nM | 170 nM |  |  | COc1cc(OC)cc(C2c3c[nH]c4c(=O)n(C)cc(c34)-c3cc(CS(C)(=O)=O)ccc3N2c2ccc(F)cc2F)c1 (stereo not shown) [Example 222, 4-(2,4-difluorophenyl)-3-(3,5-dimethoxyphenyl)-10-methyl-7-((methylsulfonyl)methyl)-3,4-dihydro-1H-1,4,10-triazadibenzo[cd,f]azulen-11(10H)-one]
12.4 nM | 31.7 nM | 1.85 nM |  |  | Cn1cc2c3c(c(CN4CCOCC4)[nH]c3c1=O)CN(c1ccc(Cl)cc1)c1ccc(CS(C)(=O)=O)cc1-2 [Example 193, 4-(4-chlorophenyl)-10-methyl-7-((methylsulfonyl)methyl)-2-(morpholinomethyl)-3,4-dihydro-1H-1,4,10-triazadibenzo[cd,f]azulen-11(10H)-one]
1.86 nM | 7.82 nM | 3.84 nM |  |  | COC(=O)NC1CCC(N2Cc3c[nH]c4c(=O)n(C)cc(c34)-c3cc(CS(C)(=O)=O)ccc32)CC1 (stereo not drawn) [Example 226, methyl ((cis)-4-(10-methyl-7-((methylsulfonyl)methyl)-11-oxo-10,11-dihydro-1H-1,4,10-triazadibenzo[cd,f]azulen-4(3H)-yl)cyclohexyl)carbamate]
0.602 nM | 134 nM | 11.9 nM |  |  | CN(C)C(=O)CCC1c2c[nH]c3c(=O)n(C)cc(c23)-c2cc(CS(C)(=O)=O)ccc2N1c1ccc(F)cc1F (stereo not shown) [Example 119, 3-(4-(2,4-difluorophenyl)-10-methyl-7-((methylsulfonyl)methyl)-11-oxo-3,4,10,11-tetrahydro-1H-1,4,10-triazadibenzo[cd,f]azulen-3-yl)-N,N-dimethylpropanamide]
1.38 nM | 80.6 nM | 55.1 nM |  |  | Cn1cc2c3c(c[nH]c3c1=O)C(CCCOc1ccccc1)N(c1ccc(F)cc1F)c1ccc(CS(C)(=O)=O)cc1-2 [Example 145, (R)-4-(2,4-difluorophenyl)-10-methyl-7-((methylsulfonyl)methyl)-3-(3-phenoxypropyl)-3,4-dihydro-1H-1,4,10-triazadibenzo[cd,f]azulen-11(10H)-one]
4.6 nM | 275 nM | 62.1 nM |  |  | Cn1cc2c3c(c[nH]c3c1=O)C(Cn1ccccc1=O)N(c1ccc(F)cc1F)c1ccc(CS(C)(=O)=O)cc1-2 (stereo not shown) [Example 238, 4-(2,4-difluorophenyl)-10-methyl-7-((methylsulfonyl)methyl)-3-((2-oxopyridin-1(2H)-yl)methyl)-3,4-dihydro-1H-1,4,10-triazadibenzo[cd,f]azulen-11(10H)-one]
25.2 nM | 57.6 nM | 7.07 nM |  |  | Cn1cc2c3c(c[nH]c3c1=O)CN(C1CCC(NC(=O)OC(C)(C)C)CC1)c1ccc(S(C)(=O)=O)cc1-2 (stereo not drawn) [Example 170, tert-butyl ((trans)-4-(10-methyl-7-(methylsulfonyl)-11-oxo-10,11-dihydro-1H-1,4,10-triazadibenzo[cd,f]azulen-4(3H)-yl)cyclohexyl)carbamate]
2.47 nM | 48.7 nM | 2.61 nM |  |  | Cn1cc2c3c(c[nH]c3c1=O)CN(C(=O)NC1CCCC1)c1ccc(CS(C)(=O)=O)cc1-2 [Example 44, N-cyclopentyl-10-methyl-7-((methylsulfonyl)methyl)-11-oxo-10,11-dihydro-1H-1,4,10-triazadibenzo[cd,f]azulene-4(3H)-carboxamide]
4.21 nM | 170 nM | 25.6 nM |  |  | CCS(=O)(=O)c1ccc2c(c1)-c1cn(C)c(=O)c3[nH]cc(c13)CN2[C@H](C)c1ccccc1 [Example 265, (R)-7-(ethylsulfonyl)-10-methyl-4-(1-phenylethyl)-3,4-dihydro-1H-1,4,10-triazadibenzo[cd,f]azulen-11(10H)-one]
> 408 nM |  | > 238 nM |  |  | Cn1cc2c3c(c[nH]c3c1=O)CN(c1ccc(F)cc1F)c1ncncc1-2 [Example 83, 4-(2,4-difluorophenyl)-10-methyl-3,4-dihydro-1H-1,4,5,7,10-pentaazadibenzo[cd,f]azulen-11(10H)-one]
> 408 nM |  | > 238 nM |  |  | Cn1cc2c3c(c[nH]c3c1=O)CN(C(=O)NCC1CCCCC1)c1ccc(CS(C)(=O)=O)cc1-2 [Example 67, N-(cyclohexylmethyl)-10-methyl-7-((methylsulfonyl)methyl)-11-oxo-10,11-dihydro-1H-1,4,10-triazadibenzo[cd,f]azulene-4(3H)-carboxamide]
73.6 nM |  | 82.2 nM |  |  | CCc1ccc(CCNC(=O)N2Cc3c[nH]c4c(=O)n(C)cc(c34)-c3cc(CS(C)(=O)=O)ccc32)cc1 [Example 63, N-(4-ethylphenethyl)-10-methyl-7-((methylsulfonyl)methyl)-11-oxo-10,11-dihydro-1H-1,4,10-triazadibenzo[cd,f]azulene-4(3H)-carboxamide]
4.71 nM |  | 8.12 nM |  |  | Cn1cc2c3c(c[nH]c3c1=O)CN(C(=O)CCC1CCCC1)c1ccc(CS(C)(=O)=O)cc1-2 [Example 103, 4-(3-cyclopentylpropanoyl)-10-methyl-7-((methylsulfonyl)methyl)-3,4-dihydro-1H-1,4,10-triazadibenzo[cd,f]azulen-11(10H)-one]
11 nM |  | 7.18 nM |  |  | Cn1cc2c3c(c[nH]c3c1=O)CN(CC1CCOC(C)(C)C1)c1ccc(CS(C)(=O)=O)cc1-2 (racemic) [Example 152, 4-((2,2-dimethyltetrahydro-2H-pyran-4-yl)methyl)-10-methyl-7-((methylsulfonyl)methyl)-3,4-dihydro-1H-1,4,10-triazadibenzo[cd,f]azulen-11(10H)-one]
53.1 nM |  | 50.7 nM |  |  | Cn1cc2c3c(c[nH]c3c1=O)C(C(=O)NCCC#N)N(c1ccc(F)cc1F)c1ccc(CS(C)(=O)=O)cc1-2 (racemic) [Example 154, N-(2-cyanoethyl)-4-(2,4-difluorophenyl)-10-methyl-7-((methylsulfonyl)methyl)-11-oxo-3,4,10,11-tetrahydro-1H-1,4,10-triazadibenzo[cd,f]azulene-3-carboxamide]
 |  |  | 53.9 nM | 165 nM | COC(=O)CCC1Nc2ccc(CS(C)(=O)=O)cc2-c2cn(C)c(=O)c3[nH]cc1c23 (racemic) [Example 17, methyl 3-(10-methyl-7-((methylsulfonyl)methyl)-11-oxo-3,4,10,11-tetrahydro-1H-1,4,10-triazadibenzo[cd,f]azulen-3-yl)propanoate]
11.2 nM |  | 16 nM |  |  | Cn1cc2c3c(c[nH]c3c1=O)CN(C(=O)CCc1ccccc1)c1ccc(CS(C)(=O)=O)cc1-2 [Example 116, 10-methyl-7-((methylsulfonyl)methyl)-4-(3-phenylpropanoyl)-3,4-dihydro-1H-1,4,10-triazadibenzo[cd,f]azulen-11(10H)-one]
29.2 nM |  | 16.4 nM |  |  | Cn1cc2c3c(c[nH]c3c1=O)CN(C1CCC(N)CC1)c1ccc(S(C)(=O)=O)cc1-2 (stereo not drawn) [Example 171, 4-((trans)-4-aminocyclohexyl)-10-methyl-7-(methylsulfonyl)-3,4-dihydro-1H-1,4,10-triazadibenzo[cd,f]azulen-11(10H)-one]
275 nM |  | > 238 nM |  |  | Cn1cc2c3c(c[nH]c3c1=O)CN(S(=O)(=O)c1ccccc1)c1ccc(CS(C)(=O)=O)cc1-2 [Example 77, 10-methyl-7-((methylsulfonyl)methyl)-4-(phenylsulfonyl)-3,4-dihydro-1H-1,4,10-triazadibenzo[cd,f]azulen-11(10H)-one]

Molecule | Ki (BRD4 (BDII_E352-M457); [2]) | EC50 [1] | Ki (BRD4 (BDI_K57-E168); [2]) | Ki (BRD4 (BDII_E352-M457); [3]) | Ki (BRD4 (BDI_K57-E168); [3])
4-((1-isopropylpiperidin-4-yl)methyl)-10-methyl-7-((methylsulfonyl)methyl)-3,4-dihydro-1H-1,4,10-triazadibenzo[cd,f]azulen-11(10H)-one [Example 183] | 15.5 nM |  | 3.84 nM |  | 
